# Measured values: ChEMBL document CHEMBL3885881, “DrugMatrix”
# Species: Rattus norvegicus
# Assay: DrugMatrix - Regimen: Daily Repeat
# Format: toxicity, organism-based, Sprague-Dawley
# Parameters: regimen Daily Repeat, gender Male, age 6-8 weeks
# Conditions: in vivo, sc, route subcutaneous, […]; for ABSOLUTE BASOPHIL / ABSOLUTE EOSINOPHIL / ABSOLUTE LYMPHOCYTE / ABSOLUTE MONOCYTE / ABSOLUTE SEGMENTED NEUTROPHIL / BASOPHIL / EOSINOPHIL / ERYTHROCYTE COUNT / HEMATOCRIT / HEMOGLOBIN / LEUKOCYTE COUNT / LYMPHOCYTE / MEAN CORPUSCULAR HEMOGLOBIN / MEAN CORPUSCULAR HEMOGLOBIN CONCENTRATION / MEAN CORPUSCULAR VOLUME / MONOCYTE / NEUTROPHIL / NUCLEATED RED BLOOD CELLS / PLATELET COUNT: tissue Blood; for ALANINE AMINOTRANSFERASE / ALBUMIN / ALKALINE PHOSPHATASE / ASPARTATE AMINOTRANSFERASE / BLOOD UREA NITROGEN / CARBON DIOXIDE / CHLORIDE / CHOLESTEROL / CREATINE PHOSPHOKINASE / CREATININE / GLUCOSE / LACTATE DEHYDROGENASE / LIPASE / PHOSPHORUS / POTASSIUM / SODIUM / TOTAL BILIRUBIN / TOTAL PROTEIN / URIC ACID: tissue Plasma
# [1] = 150 mg/kg, 120 h, dose level High, time 5 day
# [2] = 72 h, dose 2.8 mg/Kg, dose level Low, time 3 day
# [3] = 120 h, dose 2.8 mg/Kg, dose level Low, time 5 day
compound,measurement,setting,value
CN(Cc1ccc(C(C)(C)C)cc1)Cc1cccc2ccccc12 [BUTENAFINE],ABSOLUTE BASOPHIL,[1],0 CELLS/uL
same,ABSOLUTE EOSINOPHIL,[1],60.33 CELLS/uL
same,ABSOLUTE LYMPHOCYTE,[1],7925.67 CELLS/uL
same,ABSOLUTE MONOCYTE,[1],152 CELLS/uL
same,ABSOLUTE SEGMENTED NEUTROPHIL,[1],1062 CELLS/uL
same,BASOPHIL,[1],0%
same,EOSINOPHIL,[1],1%
same,ERYTHROCYTE COUNT,[1],5.24 x10E6/uL
same,HEMATOCRIT,[1],32.57%
same,HEMOGLOBIN,[1],12.97 G/DL
same,LEUKOCYTE COUNT,[1],9.2 x10E3/uL
same,LYMPHOCYTE,[1],85.67%
same,MEAN CORPUSCULAR HEMOGLOBIN,[1],24.87 pg
same,MEAN CORPUSCULAR HEMOGLOBIN CONCENTRATION,[1],39.93 G/DL
same,MEAN CORPUSCULAR VOLUME,[1],62.17 fL
same,MONOCYTE,[1],1.33%
same,NEUTROPHIL,[1],12%
same,NUCLEATED RED BLOOD CELLS,[1],0 /100WBC
same,PLATELET COUNT,[1],984.33 x10E3/uL
same,ALANINE AMINOTRANSFERASE,[1],52 u/L
same,ALBUMIN,[1],4.67 G/DL
same,ALKALINE PHOSPHATASE,[1],373 u/L
same,ASPARTATE AMINOTRANSFERASE,[1],90 u/L
same,BLOOD UREA NITROGEN,[1],15.33 mg/dL
same,CARBON DIOXIDE,[1],31.33 mmol/L
same,CHLORIDE,[1],100.33 MEQ/L
same,CHOLESTEROL,[1],54 mg/dL
same,CREATINE PHOSPHOKINASE,[1],434 u/L
same,CREATININE,[1],0.24 mg/dL
same,GLUCOSE,[1],159.67 mg/dL
same,LACTATE DEHYDROGENASE,[1],385.67 u/L
same,LIPASE,[1],12.33 u/L
same,PHOSPHORUS,[1],15.13 mg/dL
same,POTASSIUM,[1],6.75 MEQ/L
same,SODIUM,[1],146.63 MEQ/L
same,TOTAL BILIRUBIN,[1],0.3 mg/dL
same,TOTAL PROTEIN,[1],6.5 G/DL
same,URIC ACID,[1],2.2 mg/dL
same,ABSOLUTE BASOPHIL,[2],0 CELLS/uL
same,ABSOLUTE EOSINOPHIL,[2],44.33 CELLS/uL
same,ABSOLUTE LYMPHOCYTE,[2],13110.67 CELLS/uL
same,ABSOLUTE MONOCYTE,[2],225.33 CELLS/uL
same,ABSOLUTE SEGMENTED NEUTROPHIL,[2],1586.33 CELLS/uL
same,BASOPHIL,[2],0%
same,EOSINOPHIL,[2],0.33%
same,ERYTHROCYTE COUNT,[2],5.44 x10E6/uL
same,HEMATOCRIT,[2],35.13%
same,HEMOGLOBIN,[2],13.83 G/DL
same,LEUKOCYTE COUNT,[2],14.97 x10E3/uL
same,LYMPHOCYTE,[2],87.33%
same,MEAN CORPUSCULAR HEMOGLOBIN,[2],25.4 pg
same,MEAN CORPUSCULAR HEMOGLOBIN CONCENTRATION,[2],39.37 G/DL
same,MEAN CORPUSCULAR VOLUME,[2],64.57 fL
same,MONOCYTE,[2],1.33%
same,NEUTROPHIL,[2],11%
same,NUCLEATED RED BLOOD CELLS,[2],0 /100WBC
same,PLATELET COUNT,[2],1247.33 x10E3/uL
same,ALANINE AMINOTRANSFERASE,[2],51.67 u/L
same,ALBUMIN,[2],4.23 G/DL
same,ALKALINE PHOSPHATASE,[2],485 u/L
same,ASPARTATE AMINOTRANSFERASE,[2],87 u/L
same,BLOOD UREA NITROGEN,[2],14.67 mg/dL
same,CARBON DIOXIDE,[2],28.67 mmol/L
same,CHLORIDE,[2],102 MEQ/L
same,CHOLESTEROL,[2],81 mg/dL
same,CREATINE PHOSPHOKINASE,[2],255.33 u/L
same,CREATININE,[2],0.2 mg/dL
same,GLUCOSE,[2],140.33 mg/dL
same,LACTATE DEHYDROGENASE,[2],340.33 u/L
same,LIPASE,[2],9.67 u/L
same,PHOSPHORUS,[2],12.73 mg/dL
same,POTASSIUM,[2],7.04 MEQ/L
same,SODIUM,[2],146.23 MEQ/L
same,TOTAL BILIRUBIN,[2],0.23 mg/dL
same,TOTAL PROTEIN,[2],6.03 G/DL
same,URIC ACID,[2],1.43 mg/dL
same,ABSOLUTE BASOPHIL,[3],0 CELLS/uL
same,ABSOLUTE EOSINOPHIL,[3],0 CELLS/uL
same,ABSOLUTE LYMPHOCYTE,[3],12003.67 CELLS/uL
same,ABSOLUTE MONOCYTE,[3],90 CELLS/uL
same,ABSOLUTE SEGMENTED NEUTROPHIL,[3],1073 CELLS/uL
same,BASOPHIL,[3],0%
same,EOSINOPHIL,[3],0%
same,ERYTHROCYTE COUNT,[3],5.4 x10E6/uL
same,HEMATOCRIT,[3],34.57%
same,HEMOGLOBIN,[3],13.8 G/DL
same,LEUKOCYTE COUNT,[3],13.17 x10E3/uL
same,LYMPHOCYTE,[3],91%
same,MEAN CORPUSCULAR HEMOGLOBIN,[3],25.6 pg
same,MEAN CORPUSCULAR HEMOGLOBIN CONCENTRATION,[3],39.97 G/DL
same,MEAN CORPUSCULAR VOLUME,[3],64 fL
same,MONOCYTE,[3],0.67%
same,NEUTROPHIL,[3],8.33%
same,NUCLEATED RED BLOOD CELLS,[3],0 /100WBC
same,PLATELET COUNT,[3],1261 x10E3/uL
same,ALANINE AMINOTRANSFERASE,[3],42.67 u/L
same,ALBUMIN,[3],4.27 G/DL
same,ALKALINE PHOSPHATASE,[3],339.33 u/L
same,ASPARTATE AMINOTRANSFERASE,[3],85.33 u/L
same,BLOOD UREA NITROGEN,[3],16.67 mg/dL
same,CARBON DIOXIDE,[3],32.67 mmol/L
same,CHLORIDE,[3],104.67 MEQ/L
same,CHOLESTEROL,[3],68.33 mg/dL
same,CREATINE PHOSPHOKINASE,[3],102 u/L
same,CREATININE,[3],0.21 mg/dL
same,GLUCOSE,[3],147.67 mg/dL
same,LACTATE DEHYDROGENASE,[3],96.33 u/L
same,LIPASE,[3],8.67 u/L
same,PHOSPHORUS,[3],14.27 mg/dL
same,POTASSIUM,[3],7.04 MEQ/L
same,SODIUM,[3],150.5 MEQ/L
same,TOTAL BILIRUBIN,[3],0.2 mg/dL
same,TOTAL PROTEIN,[3],6.33 G/DL
same,URIC ACID,[3],1.7 mg/dL
